# Test results as given in patent publication US12115233B2, “Imaging and radiotherapeutics agents targeting fibroblast-activation protein-α (FAP-α)” (The Johns Hopkins University, priority 2017, dated 2024).
# Key:
# human recombinant FAP = molecular target: T1, human recombinant FAP (Homo sapiens, UniProt Q12884); assay: FAP Inhibition Assay (fluorogenic FAP Assay Kit); assay type: biochemical; conditions: DPP substrate, 10 minutes at room temperature, Ki from IC50 by Cheng-Prusoff conversion, read-out: enzyme inhibitory constant (Ki)
# T1 construct: purchased BPS Bioscience, San Diego, CA
# T1 sequence (Q12884 26-760 limits assumed): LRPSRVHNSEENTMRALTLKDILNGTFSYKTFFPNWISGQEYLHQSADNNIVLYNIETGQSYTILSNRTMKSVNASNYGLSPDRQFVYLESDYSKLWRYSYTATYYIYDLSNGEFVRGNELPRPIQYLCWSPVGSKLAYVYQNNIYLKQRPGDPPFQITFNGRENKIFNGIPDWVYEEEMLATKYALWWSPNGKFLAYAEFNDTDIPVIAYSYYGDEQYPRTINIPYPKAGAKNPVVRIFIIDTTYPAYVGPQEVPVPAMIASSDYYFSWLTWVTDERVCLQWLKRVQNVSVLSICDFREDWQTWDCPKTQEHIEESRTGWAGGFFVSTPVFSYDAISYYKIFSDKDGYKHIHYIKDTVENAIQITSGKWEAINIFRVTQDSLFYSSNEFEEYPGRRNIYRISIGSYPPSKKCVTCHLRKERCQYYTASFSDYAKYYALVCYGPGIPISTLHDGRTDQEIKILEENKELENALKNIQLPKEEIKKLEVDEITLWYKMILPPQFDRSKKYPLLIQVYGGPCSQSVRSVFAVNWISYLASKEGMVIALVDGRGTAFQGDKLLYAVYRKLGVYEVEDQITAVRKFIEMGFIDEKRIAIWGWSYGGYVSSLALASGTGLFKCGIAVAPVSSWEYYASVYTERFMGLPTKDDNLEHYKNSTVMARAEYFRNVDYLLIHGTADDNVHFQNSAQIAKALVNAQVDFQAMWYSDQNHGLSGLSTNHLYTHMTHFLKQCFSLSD
# Protocol: 1.4 FAP Inhibition Assay. The inhibitory activity of XY-FAP-01 was determined using a fluorogenic FAP Assay Kit (BPS Bioscience, San Diego, CA). Briefly, XY-FAP-01, DPP substrate, and human recombinant FAP were loaded into a 96 well plate to initiate the enzyme reaction. The reaction was left for 10 minutes at room temperature before fluorescence was measured with a VICTOR3 V multilabel plate reader (PerkinElmer Inc., Waltham, MA). Data was normalized and semi-log inhibition curves were generated in order to determine the IC50 value (concentration of XY-FAP-01 where the enzyme activity is 50% inhibited) for XY-FAP-01 and subsequent enzyme inhibition constant (Ki) using the Cheng-Prusoff conversion. Generation of semi-log inhibition curves and IC50 values were done using GraphPad Prism (San Diego, CA).
# [1] = system: FAP-positive cell lines (NCIH2228, U87, and SKMEL24); assay: Cellular uptake of XY-FAP-01 in FAP-positive cell lines (fluorescence imaging); assay type: cell-based, human
# Excerpt: (§1) 1.5 Cell lines. Six human cancer cell lines were used to assess binding to FAP: glioblastoma (U-87-MG), melanoma (SK-MEL-24), prostate (PC-3), non-small cell lung cancer (NCI-H2228), colorectal carcinoma (HCT 116), and lung squamous cell carcinoma (NCI-H226). From the literature, U-87-MG, SK-MEL-24, and NCI-H2228 cell lines were identified as having high levels of FAP expression [FAP-positive (+)] whereas PC-3, NCI-H226, and HCT 116 cells expressed very low levels of FAP [FAP-negative(−)]. These expression profiles were further confirmed via flow cytometry with an APC-conjugated anti-FAP antibody (R&D Systems, Minneapolis, MN) and quantitative real-time PCR. All cell lines were purchased from American Type Culture Collection (ATCC, Manassas, VA).
# (§2) 1.6 Cellular Uptake Studies. All cellular uptake and specific binding studies were performed in triplicate to ensure reproducibility. Cells were detached using 0.05% trypsin (Corning), resuspended in 1 million cell aliquots in binding buffer, and incubated with various concentrations (range, 50 nM to 0.78 nM) of XY-FAP-01 for 1 hour at 37° C. and 5% CO2. […] Cellular uptake was terminated by washing cells with ice cold PBS (1×) three times. Cells were resuspended in binding buffer and transferred to a 96-well plate for imaging. Images were acquired on the LI-COR Pearl Impulse Imager (Lincoln, NE) using an excitation wavelength of 785 nm and detection of the emission wavelength at 800 nm. Images were analyzed using the LI-COR Pearl Impulse Software (Version 2.0) and fluorescence intensity was corrected for background signal and normalized to well area.
# [2] = system: FAP-negative cell lines (PC3, NCIH226, and HCT116); assay: Cellular uptake of XY-FAP-01 in FAP-negative cell lines (fluorescence imaging); assay type: cell-based, human; conditions: all concentrations (50 nM to 0.78 nM)
# Excerpt: as §1
# as §2, with “Cells were resuspended in binding buffer and transferred to a 96-well plate for imaging. Images were acquired on the LI-COR Pearl Impulse Imager (Lincoln, NE) using an excitation wavelength of 785 nm and detection of the emission wavelength at 800 nm.” left out
# [3] = system: FAP+ U-87-MG tumor xenograft; assay: Small-animal NIRF imaging, FAP positive xenograft; assay type: in vivo, NOD/SKID mice
# Protocol: (§3) 1.7 Small-Animal Near Infrared Fluorescence (NIRF) Imaging. NIRF images were acquired on the LI-COR Pearl Impulse Imager using an excitation wavelength of 785 nm and a detection wavelength of 800 nm. Mice utilized for imaging studies were anesthetized with 3% isofluorane (v/v) and maintained at 1.5% isofluorane for the imaging procedure. NOD/SKID mice bearing FAP+ U-87-MG and FAP-PC-3 tumor xenografts were injected with 10 nmol of XY-FAP-01 via tail vein injection and images were acquired at 30 min, 1 h, 2 h, 2.5 h, and 4 h after injection of tracer.
# (§4) 1.11 Xenograft Tumor Model. 6-week old female NOD/SCID mice were subcutaneously injected in the upper left and right flanks with 1 million U87(FAP+) cells and PC3 cells (FAP-) in RPMI 1640 media supplemented with 1% FBS. Mice were monitored for tumor size and used for optical or SPECT/CT imaging when the size of tumor reached around 100 mm3.
# FAP-PC-3 tumor xenograft = assay: Small-animal NIRF imaging, FAP negative xenograft; assay type: in vivo, NOD/SKID mice; conditions: all imaging time points (30 min to 4 h)
# Protocol: as §3, §4
# [4] = Small-animal NIRF imaging, tracer clearance; assay type: in vivo, NOD/SKID mice; conditions: after one hour of distribution
# Protocol: as §3, §4
structure (smiles),measurement,setting,value
CC1(C)C(=CC=C2CCCC(C=CC3=[N+](CCCCCC(=O)NCCCOc4ccc5nccc(C(=O)NCC(=O)N6CCC[C@H]6C#N)c5c4)c4ccc(S(=O)(=O)[O-])cc4C3(C)C)=C2Oc2ccc(S(=O)(=O)O)cc2)N(CCCCS(=O)(=O)O)c2ccc(S(=O)(=O)O)cc21 [XY-FAP-01],Ki,human recombinant FAP,1.26 nM
same,uptake of XY-FAP-01 in FAP-positive cell lines,"[1]; 50 nM to 0.78 nM, 1 hour at 37° C.",concentration dependent uptake
same,XY-FAP-01 binding when preblocked with a DPP-IV specific inhibitor,"[1]; FAP-positive cell lines, 25 nM tracer, preblock with Sitagliptin",did not result in a change of binding ability
same,concentration at which saturated binding was observed,"[1]; FAP-positive cell lines, 1 hour at 37° C.",25 nM
same,XY-FAP-01 binding when preblocked with a FAP and DPP-IV specific inhibitor,"[1]; FAP-positive cells, 25 nM tracer, preblock with Val-boroPro (Talabostat)",significantly inhibited
same,uptake in vitro on FAP-α+ U87 cell line,[1]; summary statement,selective uptake
same,binding of XY-FAP-01 in FAP-negative cell lines,[2],no significant binding
same,tracer uptake in U-87-MG xenograft (NIRF),"[3]; 10 nmol via tail vein, as early as 30 minutes post injection",specific uptake
same,tracer uptake in the positive xenograft (NIRF),[3]; after four hours of distribution,retained
same,uptake in vivo on FAP-α+ U87 tumor,[3]; summary statement,selective uptake
same,tracer uptake in the FAP negative tumor (NIRF),FAP-PC-3 tumor xenograft,no significant uptake
same,tracer clearance (NIRF),[4],tracer clearance via the bladder was observed
